# In patent US20100267561A1, “HERBICIDAL PYRIDAZINONE DERIVATIVES” (priority 2007, published 2010):
# What was measured:
# Assay in all cases: Test B pre-/postemergence plant response
# Assay type in all cases: in vivo
# [1] = test system: morningglory (Ipomoea coccinea); conditions: for Morningglory plant response rating: 8 g ai/ha
# Summary of the method: (§1)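 Seeds were sown and sprayed preemergence, while plants at 2 to 18 cm (1- to 4-leaf stage) got postemergence sprays. Compounds were formulated in a non-phytotoxic solvent mixture with surfactant. After 13 to 15 days in a greenhouse, injury was rated visually against untreated controls, 0 (no effect) to 100 (complete control).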
# [2] = test system: yellow nutsedge (Cyperus esculentus); conditions: for Nutsedge, Yellow plant response rating: 8 g ai/ha
# Summary of the method: as §1
# [3] = test system: lambsquarters (Chenopodium album); conditions: for Lambsquarters plant response rating: 8 g ai/ha
# Summary of the method: as §1
# [4] = test system: eastern black (E.B.) nightshade (Solanum ptycanthum); conditions: Preemergence
# Summary of the method: as §1
# [5] = test system: Italian ryegrass (Lolium multiflorum); conditions: for Ryegrass, Italian plant response rating: 8 g ai/ha
# Summary of the method: as §1
# [6] = test system: giant foxtail (Setaria faberii); conditions: for Foxtail, Giant plant response rating: 8 g ai/ha
# Summary of the method: as §1
# [7] = test system: wild oat (Avena fatua); conditions: for Oat, Wild plant response rating: 8 g ai/ha
# Summary of the method: as §1
# [8] = test system: surinam grass (Brachiaria decumbens); conditions: for Surinam Grass plant response rating: 8 g ai/ha
# Summary of the method: as §1
# [9] = test system: corn (Zea mays); conditions: for Corn plant response rating: 8 g ai/ha
# Summary of the method: as §1
# [10] = test system: johnsongrass (Sorghum halepense); conditions: for Johnsongrass plant response rating: 8 g ai/ha
# Summary of the method: as §1
# [11] = test system: common ragweed (Ambrosia elation); conditions: for Ragweed plant response rating: 8 g ai/ha
# Summary of the method: as §1
# [12] = test system: kochia (Kochia scoparia); conditions: for Kochia plant response rating: 8 g ai/ha
# Summary of the method: as §1
# [13] = test system: blackgrass (Alopecurus myosuroides); conditions: for Blackgrass plant response rating: 8 g ai/ha
# Summary of the method: as §1
# [14] = test system: bermudagrass (Cynodon dactylon); conditions: for Bermudagrass plant response rating: 8 g ai/ha
# Summary of the method: as §1
# [15] = Postemergence, 16 g ai/ha, scale 0 to 100
# [16] = Postemergence, 31 g ai/ha, scale 0 to 100, 0 no effect, 100 complete control
# [17] = Postemergence, 62 g ai/ha, scale 0 to 100, 0 no effect, 100 complete control
# [18] = Preemergence, 16 g ai/ha, scale 0 to 100 (0 no effect, 100 complete control)
# [19] = Preemergence, 31 g ai/ha, 0 to 100 scale, 0 no effect, 100 complete control
# [20] = Preemergence, 62 g ai/ha, scale 0 to 100
compound,measurement,setting,value
Cc1cc(-c2ccc(Cl)cc2)nn1-c1c(OS(=O)(=O)c2ccccc2)cnn(C)c1=O [Compound 35],Morningglory plant response rating,"[1]; postemergence, 0-100 scale",0
same,"Plant response rating, Morningglory",[1]; [15],0
same,"Plant response rating, Morningglory",[1]; [16],0
same,"Plant response rating, Morningglory",[1]; [17],0
same,"Plant response rating, Morningglory",[1]; [18],0
same,"Plant response rating, Morningglory",[1]; [19],0
same,"Plant response rating, Morningglory",[1]; [20],10
same,Morningglory plant response rating,"[1]; Preemergence, scale 0 to 100",0
same,"Nutsedge, Yellow plant response rating","[2]; postemergence, 0-100 scale",0
same,"Plant response rating, Nutsedge, Yellow",[2]; [15],0
same,"Plant response rating, Nutsedge, Yellow",[2]; [16],0
same,"Plant response rating, Nutsedge, Yellow",[2]; [17],0
same,"Plant response rating, Nutsedge, Yellow",[2]; [18],0
same,"Plant response rating, Nutsedge, Yellow",[2]; [19],0
same,"Plant response rating, Nutsedge, Yellow",[2]; [20],0
same,"Nutsedge, Yellow plant response rating","[2]; Preemergence, scale 0 to 100",0
same,Lambsquarters plant response rating,"[3]; postemergence, 0-100 scale",0
same,"Plant response rating, Lambsquarters",[3]; [15],0
same,"Plant response rating, Lambsquarters",[3]; [16],0
same,"Plant response rating, Lambsquarters",[3]; [17],0
same,"Plant response rating, Lambsquarters",[3]; [18],0
same,"Plant response rating, Lambsquarters",[3]; [19],0
same,"Plant response rating, Lambsquarters",[3]; [20],0
same,Lambsquarters plant response rating,"[3]; Preemergence, scale 0 to 100",0
same,"Plant response rating, Nightshade, E. B.","[4]; 16 g ai/ha, scale 0 to 100 (0 no effect, 100 complete control)",0
same,"Plant response rating, Nightshade, E. B.","[4]; 31 g ai/ha, 0 to 100 scale, 0 no effect, 100 complete control",0
same,"Plant response rating, Nightshade, E. B.","[4]; 62 g ai/ha, scale 0 to 100",0
same,"Nightshade, E. B. plant response rating","[4]; 8 g ai/ha, scale 0 to 100",0
same,"Ryegrass, Italian plant response rating","[5]; postemergence, 0-100 scale",40
same,"Plant response rating, Ryegrass, Italian",[5]; [15],40
same,"Plant response rating, Ryegrass, Italian",[5]; [16],90
same,"Plant response rating, Ryegrass, Italian",[5]; [17],98
same,"Plant response rating, Ryegrass, Italian",[5]; [18],100
same,"Plant response rating, Ryegrass, Italian",[5]; [19],100
same,"Plant response rating, Ryegrass, Italian",[5]; [20],100
same,"Ryegrass, Italian plant response rating","[5]; Preemergence, scale 0 to 100",100
same,"Foxtail, Giant plant response rating","[6]; postemergence, 0-100 scale",90
same,"Plant response rating, Foxtail, Giant",[6]; [15],98
same,"Plant response rating, Foxtail, Giant",[6]; [16],100
same,"Plant response rating, Foxtail, Giant",[6]; [17],100
same,"Plant response rating, Foxtail, Giant",[6]; [18],100
same,"Plant response rating, Foxtail, Giant",[6]; [19],100
same,"Plant response rating, Foxtail, Giant",[6]; [20],100
same,"Foxtail, Giant plant response rating","[6]; Preemergence, scale 0 to 100",100
same,"Oat, Wild plant response rating","[7]; postemergence, 0-100 scale",50
same,"Plant response rating, Oat, Wild",[7]; [15],70
same,"Plant response rating, Oat, Wild",[7]; [16],85
same,"Plant response rating, Oat, Wild",[7]; [17],95
same,"Plant response rating, Oat, Wild",[7]; [19],80
same,"Plant response rating, Oat, Wild",[7]; [20],95
same,"Oat, Wild plant response rating","[7]; Preemergence, scale 0 to 100",0
same,Surinam Grass plant response rating,"[8]; postemergence, 0-100 scale",70
same,"Plant response rating, Surinam Grass",[8]; [15],95
same,"Plant response rating, Surinam Grass",[8]; [17],100
same,"Plant response rating, Surinam Grass",[8]; [18],90
same,"Plant response rating, Surinam Grass",[8]; [19],100
same,"Plant response rating, Surinam Grass",[8]; [20],100
same,Surinam Grass plant response rating,"[8]; Preemergence, scale 0 to 100",45
same,Corn plant response rating,"[9]; postemergence, 0-100 scale",40
same,"Plant response rating, Corn",[9]; [15],90
same,"Plant response rating, Corn",[9]; [16],100
same,"Plant response rating, Corn",[9]; [17],100
same,"Plant response rating, Corn",[9]; [18],40
same,"Plant response rating, Corn",[9]; [19],55
same,"Plant response rating, Corn",[9]; [20],90
same,Corn plant response rating,"[9]; Preemergence, scale 0 to 100",5
same,Johnsongrass plant response rating,"[10]; postemergence, 0-100 scale",0
same,"Plant response rating, Johnsongrass",[10]; [15],60
same,"Plant response rating, Johnsongrass",[10]; [16],95
same,"Plant response rating, Johnsongrass",[10]; [17],95
same,"Plant response rating, Johnsongrass",[10]; [18],80
same,"Plant response rating, Johnsongrass",[10]; [19],80
same,"Plant response rating, Johnsongrass",[10]; [20],80
same,Johnsongrass plant response rating,"[10]; Preemergence, scale 0 to 100",45
same,Ragweed plant response rating,"[11]; postemergence, 0-100 scale",0
same,"Plant response rating, Ragweed",[11]; [15],0
same,"Plant response rating, Ragweed",[11]; [16],0
same,"Plant response rating, Ragweed",[11]; [17],0
same,"Plant response rating, Ragweed",[11]; [18],0
same,"Plant response rating, Ragweed",[11]; [19],0
same,"Plant response rating, Ragweed",[11]; [20],0
same,Ragweed plant response rating,"[11]; Preemergence, scale 0 to 100",0
same,Kochia plant response rating,"[12]; postemergence, 0-100 scale",0
same,"Plant response rating, Kochia",[12]; [15],0
same,"Plant response rating, Kochia",[12]; [16],0
same,"Plant response rating, Kochia",[12]; [17],0
same,"Plant response rating, Kochia",[12]; [18],0
same,"Plant response rating, Kochia",[12]; [19],0
same,Kochia plant response rating,"[12]; Preemergence, scale 0 to 100",0
same,Blackgrass plant response rating,"[13]; postemergence, 0-100 scale",0
same,"Plant response rating, Blackgrass",[13]; [15],60
same,"Plant response rating, Blackgrass",[13]; [16],70
same,"Plant response rating, Blackgrass",[13]; [17],90
same,"Plant response rating, Blackgrass",[13]; [18],85
same,"Plant response rating, Blackgrass",[13]; [19],100
same,"Plant response rating, Blackgrass",[13]; [20],100
same,Blackgrass plant response rating,"[13]; Preemergence, scale 0 to 100",0
same,Bermudagrass plant response rating,"[14]; postemergence, 0-100 scale",40
same,"Plant response rating, Bermudagrass",[14]; [15],65
same,"Plant response rating, Bermudagrass",[14]; [16],100
same,"Plant response rating, Bermudagrass",[14]; [17],100
same,Bermudagrass plant response rating,"[14]; Preemergence, scale 0 to 100 (0 no effect, 100 complete control)",98
same,"Plant response rating, Bermudagrass",[14]; [18],98
same,"Plant response rating, Bermudagrass",[14]; [19],100
same,"Plant response rating, Bermudagrass",[14]; [20],100
